Literature values in US20050238616A1, “Compositions for treatment of central nervous system neoplasms, and methods of making and using the same” (Guilford Pharmaceuticals, Inc., priority 2002, published 2005).

Test system: human glioma cell lines
Conditions: several human glioma cell lines in vitro

CC(=O)O[C@H]1C(=O)[C@@]2(C)[C@H]([C@H](OC(=O)c3ccccc3)[C@]3(O)C[C@H](OC(=O)[C@H](O)[C@@H](NC(=O)c4ccccc4)c4ccccc4)C(C)=C1C3(C)C)[C@]1(OC(C)=O)CO[C@@H]1C[C@@H]2O [paclitaxel]
LD90: 5 to 10 nM
